Assay: Example 1: liver biomarkers (total bilirubin, ALT, AST, ALP) in short bowel syndrome patients, every four weeks for 24 weeks; also sorted by >5% change from baseline
Type: in vivo, Human
Design: AST (SGOT) Change from Baseline Median / ALT (SGPT) Median / TOTAL BILIRUBIN Median / TOTAL BILIRUBIN Change from Baseline Median / ALT (SGPT) Change from Baseline Median / AST (SGOT) Median: unit not given here
Settings: for ALKALINE PHOSPHATASE change from baseline −5% <= and <=5%, percent of patients / ALT (SGPT) change from baseline <−5%, number of patients / ALT (SGPT) change from baseline <−5%, percent of patients / ALT (SGPT) change from baseline >5%, number of patients / ALT (SGPT) change from baseline >5%, percent of patients / ALT (SGPT) change from baseline −5% <= and <=5%, number of patients / ALT (SGPT) change from baseline −5% <= and <=5%, percent of patients / AST (SGOT) change from baseline <−5%, number of patients / AST (SGOT) change from baseline <−5%, percent of patients / AST (SGOT) change from baseline >5%, number of patients / AST (SGOT) change from baseline >5%, percent of patients / AST (SGOT) change from baseline −5% <= and <=5%, number of patients / AST (SGOT) change from baseline −5% <= and <=5%, percent of patients / TOTAL BILIRUBIN change from baseline <−5%, number of patients / TOTAL BILIRUBIN change from baseline <−5%, percent of patients / TOTAL BILIRUBIN change from baseline >5%, number of patients / TOTAL BILIRUBIN change from baseline >5%, percent of patients / TOTAL BILIRUBIN change from baseline −5% <= and <=5%, number of patients / TOTAL BILIRUBIN change from baseline −5% <= and <=5%, percent of patients / ALKALINE PHOSPHATASE change from baseline <−5%, number of patients / ALKALINE PHOSPHATASE change from baseline <−5%, percent of patients / ALKALINE PHOSPHATASE change from baseline >5%, number of patients / ALKALINE PHOSPHATASE change from baseline >5%, percent of patients / ALKALINE PHOSPHATASE change from baseline −5% <= and <=5%, number of patients: 0.05 mg/kg/day
Experimental: Human patients with short bowel syndrome were divided into three groups: a control group (16 total individuals) to receive placebo, an experimental group (35 total individuals) to receive teduglutide at 0.05 mg/kg/day throughout the study, and an experimental group (32 total individuals) to receive teduglutide at 0.1 mg/kg/day throughout the study. Patients were treated by subcutaneous injection of placebo or the appropriate dose of teduglutide. As individuals with short bowel syndrome are likely to experience associated liver and kidney disease, known biomarkers of liver and kidney function were monitored every four weeks, for 24 weeks. The liver biomarkers tested included total bilirubin, ALT and AST and ALP. The kidney biomarkers tested included urea nitrogen, creatinine and GFR. Before administration of placebo or teduglutide, diagnostic biomarker levels were tested to establish a baseline for each individual.
To visualize the effect of GLP-2 on the levels of the diagnostic biomarkers, the average change from baseline was calculated for the placebo and teduglutide treated groups for each visit after a baseline was established. The average change from baseline of each group is depicted in FIGS. 1-7. The numerical figures for each diagnostic biomarker at each time point are depicted in Table 1.
The efficacy of teduglutide in treating liver dysfunction was further tested by sorting the data into two groups: individuals with abnormal baseline values of liver diagnostic biomarkers; and individuals with normal baseline values of liver diagnostic biomarkers. The mean diagnostic biomarker change from baseline for these two groups is shown for ALT (FIGS. 5 and 6) and AST (FIGS. 7 and 8). […] These changes were significant when compared to baseline levels for the group, and when compared to placebo (see FIGS. 5 and 7).
The raw data for this sorting is reproduced in Table 2 below.

Q: Which results are given for `CC[C@H](C)[C@H](NC(=O)[C@H](Cc1ccccc1)NC(=O)[C@H](CC(=O)O)NC(=O)[C@H](CCCNC(=N)N)NC(=O)[C@H](C)NC(=O)[C@H](C)NC(=O)[C@H](CC(C)C)NC(=O)[C@H](CC(N)=O)NC(=O)[C@H](CC(=O)O)NC(=O)[C@H](CC(C)C)NC(=O)[C@@H](NC(=O)[C@@H](NC(=O)[C@H](CC(N)=O)NC(=O)[C@H](CCSC)NC(=O)[C@H](CCC(=O)O)NC(=O)[C@H](CC(=O)O)NC(=O)[C@H](CO)NC(=O)[C@H](Cc1ccccc1)NC(=O)[C@H](CO)NC(=O)CNC(=O)[C@H](CC(=O)O)NC(=O)CNC(=O)[C@@H](N)Cc1c[nH]cn1)[C@@H](C)O)[C@@H](C)CC)C(=O)N[C@@H](CC(N)=O)C(=O)N[C@@H](Cc1c[nH]c2ccccc12)C(=O)N[C@@H](CC(C)C)C(=O)N[C@H](C(=O)N[C@@H](CCC(N)=O)C(=O)N[C@H](C(=O)N[C@@H](CCCCN)C(=O)N[C@H](C(=O)N[C@H](C(=O)N[C@@H](CC(=O)O)C(=O)O)[C@@H](C)O)[C@@H](C)CC)[C@@H](C)O)[C@@H](C)CC` [teduglutide]?
A: ALKALINE PHOSPHATASE change from baseline −5% <= and <=5%, percent of patients (week 12): (5.7%); ALT (SGPT) change from baseline <−5%, number of patients (week 12): 19; ALT (SGPT) change from baseline <−5%, percent of patients (week 12): (54.3%); ALT (SGPT) change from baseline >5%, number of patients (week 12): 4; ALT (SGPT) change from baseline >5%, percent of patients (week 12): (11.4%); ALT (SGPT) change from baseline −5% <= and <=5%, number of patients (week 12): 4; ALT (SGPT) change from baseline −5% <= and <=5%, percent of patients (week 12): (11.4%); AST (SGOT) change from baseline <−5%, number of patients (week 12): 19; AST (SGOT) change from baseline <−5%, percent of patients (week 12): (54.3%); AST (SGOT) change from baseline >5%, number of patients (week 12): 5; AST (SGOT) change from baseline >5%, percent of patients (week 12): (14.3%); AST (SGOT) change from baseline −5% <= and <=5%, number of patients (week 12): 3; AST (SGOT) change from baseline −5% <= and <=5%, percent of patients (week 12): (8.6%); TOTAL BILIRUBIN change from baseline <−5%, number of patients (week 12): 14; TOTAL BILIRUBIN change from baseline <−5%, percent of patients (week 12): (40.0%); TOTAL BILIRUBIN change from baseline >5%, number of patients (week 12): 6; TOTAL BILIRUBIN change from baseline >5%, percent of patients (week 12): (17.1%); TOTAL BILIRUBIN change from baseline −5% <= and <=5%, number of patients (week 12): 4; TOTAL BILIRUBIN change from baseline −5% <= and <=5%, percent of patients (week 12): (11.4%); ALKALINE PHOSPHATASE change from baseline <−5%, number of patients (week 16): 20; ALKALINE PHOSPHATASE change from baseline <−5%, percent of patients (week 16): (57.1%); ALKALINE PHOSPHATASE change from baseline >5%, number of patients (week 16): 6; ALKALINE PHOSPHATASE change from baseline >5%, percent of patients (week 16): (17.1%); ALKALINE PHOSPHATASE change from baseline −5% <= and <=5%, number of patients (week 16): 2; ALKALINE PHOSPHATASE change from baseline −5% <= and <=5%, percent of patients (week 16): (5.7%); ALT (SGPT) change from baseline <−5%, number of patients (week 16): 16; ALT (SGPT) change from baseline <−5%, percent of patients (week 16): (45.7%); ALT (SGPT) change from baseline >5%, number of patients (week 16): 12; ALT (SGPT) change from baseline >5%, percent of patients (week 16): (34.3%); ALT (SGPT) change from baseline −5% <= and <=5%, number of patients (week 16): 0; ALT (SGPT) change from baseline −5% <= and <=5%, percent of patients (week 16): (0.0%); AST (SGOT) change from baseline <−5%, number of patients (week 16): 14; AST (SGOT) change from baseline <−5%, percent of patients (week 16): (40.0%); AST (SGOT) change from baseline >5%, number of patients (week 16): 8; AST (SGOT) change from baseline >5%, percent of patients (week 16): (22.9%); AST (SGOT) change from baseline −5% <= and <=5%, number of patients (week 16): 6; AST (SGOT) change from baseline −5% <= and <=5%, percent of patients (week 16): (17.1%); TOTAL BILIRUBIN change from baseline <−5%, number of patients (week 16): 14; TOTAL BILIRUBIN change from baseline <−5%, percent of patients (week 16): (40.0%); TOTAL BILIRUBIN change from baseline >5%, number of patients (week 16): 9; TOTAL BILIRUBIN change from baseline >5%, percent of patients (week 16): (25.7%); TOTAL BILIRUBIN change from baseline −5% <= and <=5%, number of patients (week 16): 3; TOTAL BILIRUBIN change from baseline −5% <= and <=5%, percent of patients (week 16): (8.6%); ALKALINE PHOSPHATASE change from baseline <−5%, number of patients (week 20): 22; ALKALINE PHOSPHATASE change from baseline <−5%, percent of patients (week 20): (62.9%); ALKALINE PHOSPHATASE change from baseline >5%, number of patients (week 20): 4; ALKALINE PHOSPHATASE change from baseline >5%, percent of patients (week 20): (11.4%); ALKALINE PHOSPHATASE change from baseline −5% <= and <=5%, number of patients (week 20): 1; ALKALINE PHOSPHATASE change from baseline −5% <= and <=5%, percent of patients (week 20): (2.9%); ALT (SGPT) change from baseline <−5%, number of patients (week 20): 17; ALT (SGPT) change from baseline <−5%, percent of patients (week 20): (48.6%); ALT (SGPT) change from baseline >5%, number of patients (week 20): 9; ALT (SGPT) change from baseline >5%, percent of patients (week 20): (25.7%); ALT (SGPT) change from baseline −5% <= and <=5%, number of patients (week 20): 1; ALT (SGPT) change from baseline −5% <= and <=5%, percent of patients (week 20): (2.9%); AST (SGOT) change from baseline <−5%, number of patients (week 20): 17; AST (SGOT) change from baseline <−5%, percent of patients (week 20): (48.6%); AST (SGOT) change from baseline >5%, number of patients (week 20): 6; AST (SGOT) change from baseline >5%, percent of patients (week 20): (17.1%); AST (SGOT) change from baseline −5% <= and <=5%, number of patients (week 20): 4; AST (SGOT) change from baseline −5% <= and <=5%, percent of patients (week 20): (11.4%); TOTAL BILIRUBIN change from baseline <−5%, number of patients (week 20): 12; TOTAL BILIRUBIN change from baseline <−5%, percent of patients (week 20): (34.3%); TOTAL BILIRUBIN change from baseline >5%, number of patients (week 20): 7; TOTAL BILIRUBIN change from baseline >5%, percent of patients (week 20): (20.0%); TOTAL BILIRUBIN change from baseline −5% <= and <=5%, number of patients (week 20): 6; TOTAL BILIRUBIN change from baseline −5% <= and <=5%, percent of patients (week 20): (17.1%); ALKALINE PHOSPHATASE change from baseline <−5%, number of patients (week 24): 21; ALKALINE PHOSPHATASE change from baseline <−5%, percent of patients (week 24): (60.0%); ALKALINE PHOSPHATASE change from baseline >5%, number of patients (week 24): 4; ALKALINE PHOSPHATASE change from baseline >5%, percent of patients (week 24): (11.4%); ALKALINE PHOSPHATASE change from baseline −5% <= and <=5%, number of patients (week 24): 0; ALKALINE PHOSPHATASE change from baseline −5% <= and <=5%, percent of patients (week 24): (0.0%); ALT (SGPT) change from baseline <−5%, number of patients (week 24): 18; ALT (SGPT) change from baseline <−5%, percent of patients (week 24): (51.4%); ALT (SGPT) change from baseline >5%, number of patients (week 24): 4; ALT (SGPT) change from baseline >5%, percent of patients (week 24): (11.4%); ALT (SGPT) change from baseline −5% <= and <=5%, number of patients (week 24): 4; ALT (SGPT) change from baseline −5% <= and <=5%, percent of patients (week 24): (11.4%); AST (SGOT) change from baseline <−5%, number of patients (week 24): 17; AST (SGOT) change from baseline <−5%, percent of patients (week 24): (48.6%); AST (SGOT) change from baseline >5%, number of patients (week 24): 6; AST (SGOT) change from baseline >5%, percent of patients (week 24): (17.1%); AST (SGOT) change from baseline −5% <= and <=5%, number of patients (week 24): 3; AST (SGOT) change from baseline −5% <= and <=5%, percent of patients (week 24): (8.6%); TOTAL BILIRUBIN change from baseline <−5%, number of patients (week 24): 8; TOTAL BILIRUBIN change from baseline <−5%, percent of patients (week 24): (22.9%); TOTAL BILIRUBIN change from baseline >5%, number of patients (week 24): 10; TOTAL BILIRUBIN change from baseline >5%, percent of patients (week 24): (28.6%); TOTAL BILIRUBIN change from baseline −5% <= and <=5%, number of patients (week 24): 4; TOTAL BILIRUBIN change from baseline −5% <= and <=5%, percent of patients (week 24): (11.4%); ALT (SGPT) Change from Baseline Median (0.10 mg/kg/day, DW4): −6.5; ALT (SGPT) Median (0.10 mg/kg/day, DW4): 30.0

From US20130157954A1, “METHODS FOR TREATMENT OR PROPHYLAXIS OF KIDNEY OR LIVER DYSFUNCTION” (NPS PHARMACEUTICALS, INC., priority 2010, published 2013)
